Experimental data reported in patent US20250163044A1, “COMPOUNDS” (PSYLO PTY LTD, priority 2021, published 2025).
“And” between values parts separate entries of the source, which are not always exact repeats. Identical values can stand only once. Like-named read-outs stand apart in the source and are kept apart here.

Columns and labels:
[1] = biological target: T1, 5-HT2C receptor (Homo sapiens, UniProt P28335); experiment: FLIPR Ca2+ flux functional assay, agonist activity at 5-HT2C; assay type: cell-based
T1 construct: host or cells: HEK293
T1 sequence (P28335 33-458): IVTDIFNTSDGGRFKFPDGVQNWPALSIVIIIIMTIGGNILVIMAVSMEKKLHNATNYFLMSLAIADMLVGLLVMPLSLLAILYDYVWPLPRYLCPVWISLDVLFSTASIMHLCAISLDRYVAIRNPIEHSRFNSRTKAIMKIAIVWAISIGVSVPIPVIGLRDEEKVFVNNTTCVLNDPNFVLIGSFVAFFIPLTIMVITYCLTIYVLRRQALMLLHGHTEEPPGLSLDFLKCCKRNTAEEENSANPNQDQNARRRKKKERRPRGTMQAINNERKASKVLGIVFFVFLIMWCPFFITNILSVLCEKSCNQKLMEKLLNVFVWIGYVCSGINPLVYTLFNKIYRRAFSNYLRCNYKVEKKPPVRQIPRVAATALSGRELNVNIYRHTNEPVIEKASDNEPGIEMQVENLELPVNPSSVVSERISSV
Method: (§1) Activity at 5-HT2A, 5-HT2B and 5-HT2C receptors was determined using a FLIPR Ca2+ flux assay at WuXi AppTec Co. Ltd. (Hong Kong) Discovery Biology Unit according to their standard protocols. Briefly, stably transfected cells expressing the receptor of interest (HEK293 for 5-HT2A and 5-HT2C; CHO-K1 for 5-HT2B) were grown and plated in a 384 well plate and incubated at 37° C. and 5% CO2 overnight. A 250 mM stock solution of probenecid in FLIPR calcium assay buffer (10 mL) was freshly prepared and combined with a fluorescent dye (Fluo-4 Direct) to give a final assay concentration of 2.5 mM. Reference compounds were 4-fold serially diluted and the screening compounds were 3-fold serially diluted in 100% DMSO for 10 points using Agilent Bravo, and 750 nL was added to a 384 well compound plate using Echo along with 30 μL assay buffer. The fluorescent dye was then added to the assay plate along with assay buffer to a final volume of 40 μL. The cell plate was incubated for 50 min at 37° C. and 5% CO2 and placed into the FLIPR Tetra along with the compound plate. 10 μL of references and compounds were then transferred from the compound plate into the cell plate and the fluorescent signal was read.

[2] = biological target: T2, 5-HT2A receptor (Homo sapiens, UniProt P28223); experiment: FLIPR Ca2+ flux functional assay, agonist activity at 5-HT2A; assay type: cell-based
T2 construct: host or cells: HEK293
Method: as §1

[3] = biological target: T3, 5-HT2B receptor (Homo sapiens, UniProt P41595); experiment: FLIPR Ca2+ flux functional assay, agonist activity at 5-HT2B; assay type: cell-based
T3 construct: host or cells: CHO-K1
Method: as §1

[4] = In vivo pharmacokinetics: plasma and brain exposure after IP administration; set-up: species or system male C57BL/6 mice; details: for Kp at 0.083 h / Kp at 0.5 h: brain/plasma; for Cmax / Tmax / AUC(0-t): mouse, male C57BL/6 mice; for AUC(0-t): read-out: Plasma AUC0-last
Method: The systemic exposure of selected examples was studied in non-fasted male C57BL/6 mice weighing between 18.9-25.5 g. Mice had access to food and water ad libitum throughout the pre- and post-dose sampling period.
On the day of dosing, the formulation of each compound was prepared by dissolving solid compound in phosphate buffer saline (50 mM) using vortexing, creating colourless solutions (pH 6.4-6.5) for each compound.
Compounds were dosed to mice by IP injection (10 mL/kg dose volume via a 27G needle; n=9 mice per compound) and blood samples were collected at 5 and 30 min; 1, 2 and 4 h post-dose (n=3 mice per time point for each compound). A maximum of three blood samples were obtained from each mouse, with plasma samples being taken via submandibular bleed (approximately 120 μL). Once collected, blood samples were centrifuged immediately, supernatant plasma was removed, and stored at −80° C. until analysis by LCMS. In addition, at the 5 and 30 min and 4 h post-dose time points, the whole brain was rapidly removed from the carcass soon after the blood collection. The whole brains were blotted to remove excess blood, placed into pre-weighed polypropylene vials, and weighed. The brains were snap frozen in dry ice and subsequently stored frozen (−80° C.) until analysis.
Test compound standard solutions were diluted from a concentrated stock solution (32 mM in H2O) using 50% can in H2O (v/v) and a calibration curve was prepared in a matched matrix to the test samples.
Plasma: The plasma calibration curve was prepared by spiking aliquots of blank mouse plasma (25 μL) with test compound standard solutions (5 μL) and internal standard solution (5 μL of diazepam, 5 μg/mL in 50% acetonitrile in water). Test plasma samples (25 μL) were thawed, mixed, and then spiked with internal standard solution (5 μL). Plasma protein precipitation was performed by addition of acetonitrile (3-fold volume ratio) and thorough vortex mixing. Samples were centrifuged (RCF=9391×g) for 3 minutes and the supernatant (90 μL) was collected for analysis.
Tissue: Pre-weighed tissue samples (brain) were homogenised using a glass rod in buffer containing an EDTA/potassium fluoride solution (0.1 M/4 mg/mL) as a stabilisation cocktail to minimise the potential for ex vivo degradation (3 mL cocktail/g tissue). The tissue homogenate was briefly centrifuged (RCF=79×g) for 10 seconds to separate the foam layer before transferring an aliquot of the tissue homogenate (200 μL) to a fresh Eppendorf tube for sample extraction. Calibration standards were prepared by spiking blank brain homogenate (200 μL) with the solution standards (10 μL) and the internal standard (10 μL). Study samples were similarly prepared, except that acetonitrile (10 μL) was added instead of solution standards to maintain the same volume. Protein precipitation was carried out by the addition of a 3-fold volume of acetonitrile, followed by vortex mixing and centrifugation (RCF=9391×g) for 3 min to recover the supernatant for analysis.
Replicate analysis: Triplicate analytical replicate (ARs) samples were prepared similarly to the standards for each sample type at three concentrations (50, 500 and 2,000 ng/mL) and repeat injections of these ARs were included throughout the analytical run to assess assay performance. The extraction of the test compound from the standards and ARs were conducted as described above.

[5] = system: C57BL/6J mice; experiment: Biotelemetry and head-twitch response (HTR) experiments; assay type: in vivo, Mice (C57BL/6J males); details: male C57BL/6 mice, SC, several doses (0.03 to 30 mg/kg)
Source text: Mice (C57BL/6J males) were purchased from the Jackson Laboratory (Bar Harbor, ME, USA) at 5-6 weeks of age and allowed at least 1-2 weeks to acclimate to the NIDA, Intramural Research Program (IRP), animal research facility in Baltimore, MD, USA. The animal facility is fully accredited by the Association for the Assessment and Accreditation of Laboratory Animal Care, and all procedures were approved by the NIDA IRP Animal Care and Use Committee. Mice were initially group housed 3-5 per cage during acclimation and housed in a 12 h light-dark cycle throughout the study, with lights on at 0700 h. Food and water were available ad libitum except during testing. Cohorts of 20-24 mice were used for each test drug. The mice were subjected to experimental testing once every 1-2 weeks for 2-3 months to complete dose-effect curves and antagonist experiments. A minimum of 7 days between treatments was utilized to avoid any tolerance to effects of repeated drug administration. All drug doses represent the weight of the salt dissolved in 0.9% saline vehicle. Mice were tested first in dose-response studies to assess the effects of each compound at doses from 0.03 to 30 mg/kg s.c. and were subsequently tested in antagonist reversal studies utilizing pretreatment with M100907 and WAY100635. All experiments were conducted from 0900 to 1700 local time during the light phase, as sensitivity of rodents to other tryptamine psychedelics is diurnal, with maximal HTR observed in the middle of the light phase. Experiments were run during the light phase also to avoid any potential influence of melatonin receptor activity on HTR as melatonin and related agonists are known to reduce HTR induced by DOI in rats. For each experiment, mice were acclimated to the testing room in their home cage for at least 1 h prior to experimental sessions. Behavioral test sessions were carried out in Tru Scan mouse locomotor arenas equipped with photobeam arrays (Coulbourn Instruments, Holliston, MA, USA), which were modified with cylindrical inserts and transparent floors useful in detecting mouse HTR.
Subcutaneous Temperature Transponder Implants. At least 1 week prior to the start of the experiments, mice received s.c. implanted temperature transponders (14×2 mm, model IPTT-300, Bio Medic Data Systems, Inc., Seaford, DE, USA) under brief isoflurane anesthesia. Mice were single housed post implant for the remainder of the study to protect the transponder from removal by cage mates. Temperature was determined noninvasively using a handheld receiver that is sensitive to signals emitted from the implanted transponders.
Prior to each experiment, mouse body weight and temperature were recorded. Mice were then placed into testing chambers for acclimation. In dose-response studies, after a brief 5 min acclimation, mouse body temperature was recorded for baseline measurement, mice received s.c. injection of test substance or vehicle, and animals were returned to the testing arena for 30 min. During the session, locomotor activity was monitored via photobeam tracking of movements in the horizontal plane to yield distance traveled in centimeter. HTR was monitored by the analysis of GoPro Hero Black 7 video recordings (120 frames per sec and 960p resolution) using a commercially available software package from Clever Sys Inc. (Reston, VA, USA). 82 Post-treatment body temperature values were also recorded, and temperature data are represented as change from pretreatment baseline.
In antagonist reversal experiments, mice received a s.c. injection of either receptor antagonists or vehicle and were returned to the testing chamber for 30 min. During this period, locomotor activity was monitored to examine the potential effects of antagonist treatment on general behavior or movement. At 30 min after antagonist administration, mice were given test drug or vehicle and returned to the chambers for an additional 30 min of video recording used for analyses. […]

[6] = 0.083 h, IP 10 mg/kg, individual mouse, 10 mg/kg
[7] = 0.083 h, IP 10 mg/kg, individual mouse, 10 mg/kg, read-out: Brain Parenchyma Concentration, Individual
[8] = 0.5 h, IP 10 mg/kg, individual mouse, 10 mg/kg
[9] = 0.5 h, IP 10 mg/kg, individual mouse, 10 mg/kg, read-out: Brain Parenchyma Concentration, Individual
[10] = 4 h, IP 10 mg/kg, individual mouse
[11] = male, C57BL/6, mouse, brain, ip, 10 mg/kg, 0.083 h, n = 3, read-out: Brain Parenchyma Concentration, Mean ± SD
[12] = male, C57BL/6, mouse, brain, ip, 10 mg/kg, 0.5 h, n = 3, read-out: Brain Parenchyma Concentration, Mean ± SD
[13] = male, C57BL/6, mouse, ip, 10 mg/kg, 0.083 h, individual mouse, read-out: B:P Ratio, Individual
[14] = male, C57BL/6, mouse, ip, 10 mg/kg, 0.5 h, n = 3, read-out: B:P Ratio, Mean ± SD
[15] = male, C57BL/6, mouse, plasma, ip, 10 mg/kg, 0.083 h, n = 3, read-out: Plasma Concentration, Mean ± SD
[16] = male, C57BL/6, mouse, plasma, ip, 10 mg/kg, 0.5 h, n = 3, read-out: Plasma Concentration, Mean ± SD
[17] = HEK293 cells, Ca2+ flux, read-out: 5-HT2C EC50
[18] = HEK293 cells, Ca2+ flux, read-out: 5-HT2A EC50
[19] = CHO-K1 cells, Ca2+ flux, read-out: 5-HT2B EC50

T2 sequence (P28223 whole entry): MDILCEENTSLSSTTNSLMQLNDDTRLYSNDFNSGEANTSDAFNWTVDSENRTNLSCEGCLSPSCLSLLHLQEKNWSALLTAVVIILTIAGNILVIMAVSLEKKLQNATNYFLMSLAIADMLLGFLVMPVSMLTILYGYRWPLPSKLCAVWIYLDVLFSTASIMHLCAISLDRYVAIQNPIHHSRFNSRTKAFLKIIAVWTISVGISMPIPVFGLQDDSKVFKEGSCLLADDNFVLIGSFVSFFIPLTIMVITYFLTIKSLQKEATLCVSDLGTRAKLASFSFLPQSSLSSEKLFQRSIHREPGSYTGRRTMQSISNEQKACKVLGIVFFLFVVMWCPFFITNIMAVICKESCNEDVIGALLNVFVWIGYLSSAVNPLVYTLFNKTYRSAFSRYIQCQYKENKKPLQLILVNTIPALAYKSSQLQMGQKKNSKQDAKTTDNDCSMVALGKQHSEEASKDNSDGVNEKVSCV
T3 sequence (P41595 whole entry): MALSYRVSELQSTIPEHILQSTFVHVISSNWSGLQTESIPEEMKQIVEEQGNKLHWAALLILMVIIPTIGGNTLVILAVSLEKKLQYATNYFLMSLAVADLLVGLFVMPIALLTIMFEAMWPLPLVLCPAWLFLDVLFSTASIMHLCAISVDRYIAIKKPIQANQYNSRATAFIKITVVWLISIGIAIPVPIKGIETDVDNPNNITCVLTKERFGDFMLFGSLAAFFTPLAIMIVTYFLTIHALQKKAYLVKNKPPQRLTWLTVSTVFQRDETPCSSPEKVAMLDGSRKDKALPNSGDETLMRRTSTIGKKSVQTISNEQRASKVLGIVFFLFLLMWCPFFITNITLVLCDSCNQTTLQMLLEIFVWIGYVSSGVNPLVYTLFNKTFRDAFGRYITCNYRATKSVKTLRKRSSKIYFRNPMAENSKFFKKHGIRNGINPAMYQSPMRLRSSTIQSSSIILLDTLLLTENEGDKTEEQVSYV

Row | SMILES | Emax ([1]; HEK293 cells, Ca2+ flux) [%] | Emax ([2]; HEK293 cells, Ca2+ flux) [%] | Emax ([3]; CHO-K1 cells, Ca2+ flux) [%] | B:P Ratio, Individual [4, 6] | Plasma Concentration, Individual [4, 6] | concentration at 0.5 h [4, 7] | B:P Ratio, Individual [4, 8] | Plasma Concentration, Individual [4, 8] | concentration at 0.5 h [4, 9] | Brain Parenchyma Concentration, Individual [4, 10] | Plasma Concentration, Individual [4, 10] | concentration at 0.083 h [4, 11] [nM] | concentration at 0.5 h [4, 12] [nM] | Kp at 0.083 h [4, 13] | Kp at 0.5 h [4, 14] | concentration at 0.083 h [4, 15] [nM] | concentration at 0.5 h [4, 16] [nM] | Cmax ([4]; plasma, IP 10 mg/kg) [nM] | Tmax ([4]; plasma, IP 10 mg/kg) [min] | AUC(0-t) ([4]; plasma, IP 10 mg/kg) [µM·h] | also measured
1 | COc1ccc2[nH]cc(CCN(C)C)c2n1 [Example P-1, 2-(5-methoxy-1H-pyrrolo[3,2-b]pyridin-3-yl)-N,N-dimethylethan-1-amine] | 74.3 | 47.7 | -1.07 | 0.24 and 0.34 | 4300 nM and 7630 nM | 2060 nM and 1040 nM and 2560 nM | 0.30 and 2.3 and 1.0 | 1030 nM and 307 nM and 420 nM | 307 nM and 701 nM and 437 nM | <LLQ | <LLQ | 1890 ± 776 | 482 ± 201 | 0.27 | 1.2 ± 1 | 6530 ± 1930 | 585 ± 387 | 6530 | 5 | 1.37 | EC50 [1]: 18.8 nM; EC50 [2]: 34.9 nM; EC50 [3]: > 10000 nM; B:P Ratio, Mean ± SD ([4]; 0.083 h, IP 10 mg/kg, n = 3): 0.28 ± 0.048; concentration at 0.083 h ([4]; male, C57BL/6, mouse, plasma, ip, 10 mg/kg, 0.083 h, individual mouse, read-out: Plasma Concentration, Individual): 7660 nM; Head-twitch response (HTR) [5]: not promoting increased head-twitch response; Tolerability (temperature, locomotor activity) [5]: well-tolerated
2 | COc1ccnc2[nH]cc(CCN(C)C)c12 [Example P-4, 2-(4-methoxy-1H-pyrrolo[2,3-b]pyridin-3-yl)-N,N-dimethylethan-1-amine] | 17.9 | 35 | -0.27 | – | – | – | – | – | – | – | – | – | – | – | – | – | – | – | – | – | EC50 [1, 17]: 241 nM; EC50 [2, 18]: 1230 nM; EC50 [3, 19]: > 10000 nM; Head-twitch response (HTR) [5]: not promoting increased head-twitch response; Tolerability (temperature, locomotor activity) [5]: well-tolerated
3 | COc1nccc2[nH]cc(CCN(C)C)c12 [Example P-5, 2-(4-methoxy-1H-pyrrolo[3,2-c]pyridin-3-yl)-N,N-dimethylethan-1-amine] | 79.1 | 56.2 | -0.87 | 0.19 and 0.16 | 5880 nM and 1970 nM and 8280 nM | 230 nM and 365 nM and 1360 nM | 2.5 and 2.4 | 985 nM and 776 nM | 2420 nM and 1860 nM | <LLQ | <LLQ | 984 ± 540 | 1970 ± 414 | 0.21 | 2.3 ± 0.26 | 5380 ± 3180 | 859 ± 111 | 5380 | 5 | 1.63 | EC50 [1, 17]: 38.4 nM; EC50 [2, 18]: 24.4 nM; EC50 [3, 19]: > 10000 nM; concentration at 0.5 h ([4]; male, C57BL/6, mouse, brain, ip, 10 mg/kg, 0.5 h, individual mouse, read-out: Brain Parenchyma Concentration, Individual): 1610 nM; Kp at 0.083 h ([4]; male, C57BL/6, mouse, ip, 10 mg/kg, 0.083 h, n = 3, read-out: B:P Ratio, Mean ± SD): 0.19 ± 0.022; Kp at 0.5 h ([4]; male, C57BL/6, mouse, ip, 10 mg/kg, 0.5 h, individual mouse, read-out: B:P Ratio, Individual): 2; concentration at 0.5 h ([4]; male, C57BL/6, mouse, plasma, ip, 10 mg/kg, 0.5 h, individual mouse, read-out: Plasma Concentration, Individual): 815 nM
